Legend:
MMP01 = biological target: T1, MMP01 (Homo sapiens, UniProt P03956); test: Thiopeptolide assay, MMP01; type: biochemical; conditions: Tables 2, 3, 5, 7; read-out: IC50 MMP1
T1 construct: purchased Washington University School of Medicine, St. Louis, Mo
T1 sequence (P03956 100-469): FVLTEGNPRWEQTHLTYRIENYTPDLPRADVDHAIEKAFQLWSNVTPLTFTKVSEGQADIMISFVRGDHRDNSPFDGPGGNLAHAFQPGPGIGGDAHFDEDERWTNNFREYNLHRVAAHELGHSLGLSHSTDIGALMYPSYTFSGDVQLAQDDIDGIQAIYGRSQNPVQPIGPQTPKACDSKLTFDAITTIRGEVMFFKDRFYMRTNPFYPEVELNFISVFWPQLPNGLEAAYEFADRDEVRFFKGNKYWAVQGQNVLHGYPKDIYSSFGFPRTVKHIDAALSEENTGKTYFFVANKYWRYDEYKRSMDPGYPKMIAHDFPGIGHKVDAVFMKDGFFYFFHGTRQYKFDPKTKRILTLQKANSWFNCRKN
Procedure: (§1) MMP01, MMP07, MMP09, and MMP13 activity was assayed in a method similar to MMP02 and MMP03 (SCD and GCD). MMP01 and MMP09 can be obtained from Washington University School of Medicine, St. Louis, Mo. MMP07 can be obtained in accordance with the known procedure set forth by Ye QZ, Johnson L. L., and Baragi V., "Gene Syntheses and Expression in E. coli for PUMP, a Human Matrix Metalloproteinase" Biochem. and Biophys. […] MMP 13 can be obtained in accordance with the known procedure set forth by Freije J. M. P., et al., "Molecular Cloning and Expression of Collegenase-3, a Novel Human Matrix Metalloproteinase Produced by Breast Carcinomas" J. Bio.
(§2) Hydrolysis of the thiopeptolide substrate Ac-Pro-Leu-Gly-thioester-Leu-Leu-Gly-OEt (Bachem) is used as the primary screen to determine IC50 values for MMP inhibitors. A 100 μL reaction contains 1 mM 5,5'-dithiobis(2-nitrobenzoic acid) (DTNB), 100 μM substrate, 0.1% Brij, enzyme, and inhibitor in the appropriate reaction buffer. Activated full-length enzymes are assayed at 5 nM, Stromelysin Catalytic Domain (SCD) at 10 nM, and Gelatinase A Catalytic Domain (GaCD) at 1 nM. Inhibitors are screened from 100 μM to 1 nM. Full-length enzymes are assayed in 50 mM HEPES, 10 mM CaCl2, pH 7.0; SCD in 50 mM MES, 10 mM CaCl2, pH 6.0; and GaCD in 50 mM MOPS, 10 mM CaCl2, 10 μM ZnCl2, pH 7.0.

[1] = biological target: gelatinase A catalytic domain (MMP02); test: Thiopeptolide assay, gelatinase A catalytic domain (GCD, MMP02); type: biochemical; conditions: Tables 2, 3, 5, 7; read-out: IC50 MMP-2CD
Procedure: as §2

[2] = biological target: T2, stromelysin-1 catalytic domain (MMP03) (Homo sapiens, UniProt P08254); test: Thiopeptolide assay, stromelysin-1 catalytic domain (SCD, MMP03); type: biochemical; conditions: Tables 2, 3, 5, 7; read-out: IC50 MMP 3CD
T2 construct: SCD (stromelysin-1 catalytic domain); made in house; host or cells: Escherichia coli
T2 sequence (P08254 100-272 limits assumed): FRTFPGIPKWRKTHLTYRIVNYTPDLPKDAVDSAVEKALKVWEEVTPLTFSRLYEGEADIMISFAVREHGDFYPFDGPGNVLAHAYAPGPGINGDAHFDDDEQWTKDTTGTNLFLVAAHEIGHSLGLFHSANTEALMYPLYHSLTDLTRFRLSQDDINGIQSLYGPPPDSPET
Procedure: as §2

MMP-13CD = test: Thiopeptolide assay, MMP-13CD; type: biochemical, human; conditions: Tables 2, 3, 5, 7
Procedure: IC50 values were determined using a thiopeptolide substrate, Ac-Pro-Leu-Gly-thioester-Leu-Leu-Gly-OEt (Ye Q.-Z., Johnson L. L., Hupe D. J., and Baragi V., "Purification and Characterization of the Human Stromelysin Catalytic Domain Expressed in Escherichia coli," Biochemistry, 1992;31:11231-11235). MMP01, MMP07, MMP09, and MMP13 activity was assayed in a method similar to MMP02 and MMP03 (SCD and GCD). MMP01 and MMP09 can be obtained from Washington University School of Medicine, St. Louis, Mo. MMP07 can be obtained in accordance with the known procedure set forth by Ye QZ, Johnson L. L., and Baragi V., "Gene Syntheses and Expression in E. coli for PUMP, a Human Matrix Metalloproteinase" Biochem. and Biophys. Res. Comm., 1992; 186:143-149. MMP 13 can be obtained in accordance with the known procedure set forth by Freije J. M. P., et al., "Molecular Cloning and Expression of Collegenase-3, a Novel Human Matrix Metalloproteinase Produced by Breast Carcinomas" J. Bio. Chem., 1994;269:16766-6773.
as §2, with “7.0. The change in absorbance at 405 riM is monitored on a ThermoMax microplate reader at room temperature continuously for 20 minutes.” for “7.0.”

MMP07 = biological target: T3, MMP07 (Homo sapiens, UniProt P09237); test: Thiopeptolide assay, MMP07; type: biochemical; conditions: Tables 2, 3, 5, 7; read-out: IC50 MMP-7
T3 construct: made in house; host or cells: Escherichia coli
T3 sequence (P09237 95-267): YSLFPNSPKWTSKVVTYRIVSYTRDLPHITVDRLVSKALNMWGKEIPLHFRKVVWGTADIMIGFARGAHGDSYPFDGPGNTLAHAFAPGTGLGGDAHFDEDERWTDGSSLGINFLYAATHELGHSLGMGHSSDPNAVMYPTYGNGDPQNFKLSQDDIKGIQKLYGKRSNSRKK
Procedure: as §1, §2

| IC50 (MMP01) | IC50 [1] | IC50 [2] | IC50 (MMP-13CD) | IC50 (MMP07) | SMILES |
| --- | --- | --- | --- | --- | --- |
| > 100 µM | 2100 nM | 2.7 µM | 1.9 µM | 74.1 µM | O=C(CCC(NS(=O)(=O)c1ccc2oc3ccccc3c2c1)C(=O)O)NCc1ccccc1 (stereo not shown) [Example F10, 4-Benzylcarbamoyl-2-(dibenzofuran-2-sulfonylamino)-butyric acid] |
| > 100 µM | 700 nM | 1 µM | 0.7 µM | 40.9 µM | O=C(CCC(NS(=O)(=O)c1ccc2oc3ccccc3c2c1)C(=O)O)NCC(c1ccccc1)c1ccccc1 (stereo not shown) [Example F5, 2-(Dibenzofuran-2-sulfonylamino)-4-(2,2-diphenyl-ethylcarbamoyl)-butyric acid] |
| > 100 µM | 9800 nM | 22.6 µM | 39.3 µM | > 100 µM | CN(C)CCNC(=O)CCC(NS(=O)(=O)c1ccc2oc3ccccc3c2c1)C(=O)O (stereo not shown) [Example F9, 2-(Dibenzofuran-2-sulfonylamino)-4-(2-dimethylamino-ethylcarbamoyl)-butyricacid] |
| > 100 µM | 3900 nM | 8.7 µM | 24.1 µM | > 100 µM | CC(O)CNC(=O)CCC(NS(=O)(=O)c1ccc2oc3ccccc3c2c1)C(=O)O (stereo not shown) [Example F3, 2-(Dibenzofuran-2-sulfonylamino)-4-(2-hydroxy-propylcarbamoyl)-butyric acid] |
| > 100 µM | 400 nM | 1.4 µM | 2.4 µM | 57.6 µM | Cn1cccc1CCNC(=O)CCC(NS(=O)(=O)c1ccc2oc3ccccc3c2c1)C(=O)O (stereo not shown) [Example F14, 2-(Dibenzofuran-2-sulfonylamino)-4-[2-(1-methyl-1H-pyrrol-2-yl)-ethylcarbamoyl]-butyric acid] |
| 61.3 µM | 100 nM | 0.4 µM | 0.2 µM | 7 µM | CC(C)CC(C)NC(=O)CCC(NS(=O)(=O)c1ccc2oc3ccccc3c2c1)C(=O)O (stereo not shown) [Example F8, 2-(Dibenzofuran-2-sulfonylamino)-4-(1,3-dimethyl-butylcarbamoyl)-butyric acid] |

Second part, the compound before the results:

| SMILES | IC50 (MMP01) | IC50 [1] | IC50 [2] | IC50 (MMP-13CD) | IC50 (MMP07) |
| --- | --- | --- | --- | --- | --- |
| O=C(CCCc1c[nH]c2ccccc12)NCCCCC(NS(=O)(=O)c1ccc2oc3ccccc3c2c1)C(=O)O (stereo not shown) [Example A31, 2-(Dibenzofuran-2-sulfonylamino)-6-(4-1H-indol-3-yl-butyrylamino)-hexanoic acid] | > 100 µM | 3300 nM | 6.4 µM | 12.8 µM | > 100 µM |
| O=C(O)C(CCCCNS(=O)(=O)c1ccc2ccccc2c1)NS(=O)(=O)c1ccc2oc3ccccc3c2c1 (stereo not shown) [Example D8, 2-(Dibenzofuran-2-sulfonylamino)-6-(naphthalene-2-sulfonylamino)-hexanoic acid] | > 100 µM | 7000 nM | 19 µM | 39 µM | > 100 µM |
| O=C(COc1ccccc1)NCCCCC(NS(=O)(=O)c1ccc2oc3ccccc3c2c1)C(=O)O (stereo not shown) [Example A8, 2-(Dibenzofuran-2-sulfonylamino)-6-(2-phenoxy-acetylamino)-hexanoic acid] | > 100 µM | 1600 nM | 2.5 µM | 4.8 µM | > 100 µM |
| O=C(O)C(CCCCNC(=S)NC(c1ccccc1)c1ccccc1)NS(=O)(=O)c1ccc2oc3ccccc3c2c1 (stereo not shown) [Example B4, 6-(3-Benzhydryl-thioureido)-2-(dibenzofiuran-2-sulfonylamino)-hexanoic acid] | > 100 µM | 9100 nM | 8.1 µM | 20.5 µM | > 100 µM |
| O=C(O)C(CCCCNS(=O)(=O)c1ccc(F)cc1)NS(=O)(=O)c1ccc2oc3ccccc3c2c1 (stereo not shown) [Example D1, 2-(Dibenzofuran-2-sulfonylamino)-6-(4-fluoro-benzenesulfonylamino)-hexanoicacid] | > 100 µM | 1700 nM | 2.9 µM | 2.4 µM | > 100 µM |
| O=C(O)C(CCCCNC(=S)Nc1cccnc1)NS(=O)(=O)c1ccc2oc3ccccc3c2c1 (stereo not shown) [Example B3, 2-(Dibenzofuran-2-sulfonylamino)-6-(3-pyridin-3-yl-thioureido)-hexanoic acid] | > 100 µM | 2100 nM | 6.1 µM | 13.6 µM | 93.5 µM |
| CC(C)(C)c1ccc(OCC(=O)NCCCCC(NS(=O)(=O)c2ccc3oc4ccccc4c3c2)C(=O)O)cc1 (stereo not shown) [Example A10, 6-[2-(4-tert-Butyl-phenoxy)actylamino]-2-(dibenzofuran-2-sulfonylamino)-hexanoic acid] | > 100 µM | 9400 nM | 26.5 µM | 63 µM | > 100 µM |
| O=C(CC1=CCCC1)NCCCCC(NS(=O)(=O)c1ccc2oc3ccccc3c2c1)C(=O)O (stereo not shown) [Example A12] | > 100 µM | 600 nM | 1 µM | 1.7 µM | 64.9 µM |
| O=C(O)C(CCCCNS(=O)(=O)c1cccc2ccccc12)NS(=O)(=O)c1ccc2oc3ccccc3c2c1 (stereo not shown) [Example D9, 2-(Dibenzofuran-2-sulfonylamino)-6-(naphthalene-1-sulfonylamino)-hexanoic acid] | > 100 µM | 4300 nM | 14.2 µM | 11.7 µM | > 100 µM |
| O=C(O)C(CCCCNC(=S)NCc1ccccc1)NS(=O)(=O)c1ccc2oc3ccccc3c2c1 (stereo not shown) [Example B5, 6-(3-Benzyl-thioureido)-2-(dibenzofuran-2-sulfonylamino)-hexanoic acid] | > 100 µM | 1200 nM | 2.3 µM | 3.3 µM | > 100 µM |
| O=C(CCc1ccncc1)NCCCCC(NS(=O)(=O)c1ccc2oc3ccccc3c2c1)C(=O)O (stereo not shown) [Example A22, 2-(Dibenzofuran-2-sulfonylamino)-6-(3-pyridin4-yl-propionylamino)-hexanoic Acid] | > 100 µM | 3000 nM | 9 µM | 10 µM | > 100 µM |

Reference: patent US6294674A, “Dibenzofuran sulfonamide matrix metalloproteinase inhibitors” (priority 1999, dated 2001)
